Reference: patent publication US10494683B2, “Nitrate- and nitrite-reducing probiotic feed additive” (The United States of America, as represented by the …, priority 2015, dated 2019)

Tests used:
Holstein steers = experiment: Ruminally cannulated steers given NaNO3 with or without strain NRRL 67118; type: in vivo; settings: rumen samples of treated steers incubated in vitro
[1] = test system: mixed ruminal microorganisms; experiment: CH4 production in vitro with mixed ruminal microorganisms; type: cell-based

| Structure (SMILES) | dCH4/dt (Holstein steers; 83 mg NaNO3/kg body weight daily, Control 4.13) [b umol/ml per h] | Nitrate reduction (Holstein steers; Control 0.42) [e mM/hr] | Nitrite reduction (Holstein steers; Control 1.21) [c mM/hr] | CH4 production [1] |
| --- | --- | --- | --- | --- |
| O=[N+]([O-])[O-].[Na+] [NO3, NaNO3] | 2.22 | 0.54 | 1.38 |  |
| O=N[O-].[Na+] [NO2, NaNO2] |  |  |  | zero |
